Assay results: patent EP0674651B1, “SUBSTITUTED 6-AZAANDROSTENONES” (priority 1992, dated 1994)

Legend:
[1] = target: T1, human type 2 5α-reductase (Homo sapiens, UniProt P31213); test: 5α-reductase in vitro inhibitory activity, human type 2
T1 sequence (P31213 1-254): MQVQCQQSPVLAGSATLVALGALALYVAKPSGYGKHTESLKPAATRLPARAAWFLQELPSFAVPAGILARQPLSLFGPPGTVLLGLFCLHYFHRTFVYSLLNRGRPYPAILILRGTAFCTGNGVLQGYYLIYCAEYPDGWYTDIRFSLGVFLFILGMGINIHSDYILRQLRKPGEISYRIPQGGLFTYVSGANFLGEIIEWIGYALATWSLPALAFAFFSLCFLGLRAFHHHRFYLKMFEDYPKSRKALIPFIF
Method: (§1) Microsomes were prepared by homogenization of the tissue or cells, followed by differential centrifugation of the homogenate. […] Corresponding incubations were carried out with no test compound as a control study.
The percentage of conversion of testosterone to DHT in the presence of test compounds compared to the corresponding conversion in the control study was estimated using high pressure liquid chromatography (HPLC) with radiochemical detection.

[2] = target: T2, human type 1 5α-reductase (Homo sapiens, UniProt P18405); test: 5α-reductase in vitro inhibitory activity, human type 1
T2 sequence (P18405 1-259): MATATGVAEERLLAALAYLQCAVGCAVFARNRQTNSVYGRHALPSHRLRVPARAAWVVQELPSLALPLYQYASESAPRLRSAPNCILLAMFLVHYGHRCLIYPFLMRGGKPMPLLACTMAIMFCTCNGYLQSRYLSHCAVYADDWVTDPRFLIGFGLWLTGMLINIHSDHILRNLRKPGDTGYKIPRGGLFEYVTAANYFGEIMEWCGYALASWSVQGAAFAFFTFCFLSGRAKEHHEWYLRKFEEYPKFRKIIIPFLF
Method: as §1
For type 2 IC50 measurements, assay components except testosterone were preincubated for 20 minutes at pH 6.0, and following the addition of 8nM testosterone the assays were allowed to proceed for 20-40 minutes. The percentage of conversion of testosterone to DHT in the presence of test compounds compared to the corresponding conversion in the control study was estimated using high pressure liquid chromatography (HPLC) with radiochemical detection.

Compound	IC50 [1]	IC50 [2]
Cc1cccc(C(C)(C)C)c1NC(=O)[C@H]1CC[C@H]2[C@@H]3CNC4=CC(=O)CC[C@]4(C)[C@H]3CC[C@]12C [Compound 62, 17β-N-(2-t-Butyl-6-methyl)phenyl-carbamoyl-6-azaandrost-4-en-3-one]	< 10 nM	> 100 nM
C[C@]12CC[C@H]3[C@@H](CNC4=CC(=O)CC[C@@]43C)[C@@H]1CC[C@@H]2C(=O)NC1(c2ccc3c(c2)OCO3)CCCCC1 [Compound 124, 17β-N-1-(3,4-Methylenedioxyphenyl)cyclohexyl-carbamoyl-6-azaandrost-4-en-3-one]	< 10 nM	10 to 100 nM
CC(C)(C)c1ccc(C2(NC(=O)[C@H]3CC[C@H]4[C@@H]5CNC6=CC(=O)CC[C@]6(C)[C@H]5CC[C@]34C)CCSCC2)cc1 [Compound 143, 17β-N-4-(4-t-Butylphenyl)tetrahydrothiopyranyl-carbamoyl-6-azaandrost-4-en-3-one]	< 10 nM	< 10 nM
C[C@]12CC[C@H]3[C@@H](CNC4=CC(=O)CC[C@@]43C)[C@@H]1CC[C@@H]2C(=O)NC(c1ccc(F)cc1)c1ccc(F)cc1 [Compound 24, 17β-N-Bis-(4-fluorophenyl)methyl-carbamoyl-6-azaandrost-4-en-3-one]		10 to 100 nM
CC1=C2NC[C@H]3[C@@H]4CC[C@H](C(=O)Nc5cc(C(C)(C)C)ccc5C(C)(C)C)[C@@]4(C)CC[C@@H]3[C@@]2(C)CCC1=O [Compound 118, 17β-N-(2,5-Di-t-butyl)phenyl-carbamoyl-6-azaandrost-4-methyl-4-en-3-one]	< 10 nM	< 10 nM
C[C@]12CC[C@H]3[C@@H](CNC4=CC(=O)CC[C@@]43C)[C@@H]1CC[C@@H]2C(=O)Nc1c(Cl)cc(Cl)cc1Cl [Compound 58, 17β-N-(2,4,6-Trichloro)phenyl-carbamoyl-6-azaandrost-4-en-3-one]	< 10 nM	10 to 100 nM
C[C@]12CC[C@H]3[C@@H](CNC4=CC(=O)CC[C@@]43C)[C@@H]1CC[C@@H]2C(=O)N1CCC(Cc2ccccc2)CC1 [Compound 37, 17β-N-(4-Benzyl)piperidyl-carbamoyl-6-azaandrost-4-en-3-one]	< 10 nM	10 to 100 nM
C[C@]12CC[C@H]3[C@@H](CNC4=CC(=O)CC[C@@]43C)[C@@H]1CC[C@@H]2C(=O)NC1(c2ccc(Cl)cc2Cl)CC1 [Compound 101, 17β-N-1-(2,4-Dichlorophenyl)cyclopropyl-carbamoyl-6-azaandrost-4-en-3-one]	< 10 nM	< 10 nM
C[C@]12CC[C@H]3[C@@H](CNC4=CC(=O)CC[C@@]43C)[C@@H]1CC[C@@H]2C(=O)Nc1cc(C(F)(F)F)ccc1F [Compound 129]	< 10 nM	10 to 100 nM
CC(C)(C)c1ccc(C(NC(=O)[C@H]2CC[C@H]3[C@@H]4CNC5=CC(=O)CC[C@]5(C)[C@H]4CC[C@]23C)C(C)(C)C)cc1 (stereo partly drawn) [Compound 73, 17β-N-(1-t-Butyl-1-(4-t-butylphenyl))methyl-carbamoyl-6-azaandrost-4-en-3-one]	< 10 nM	< 10 nM
CC(C)(C)c1ccc(NC(=O)[C@H]2CC[C@H]3[C@@H]4CNC5=CC(=O)CC[C@]5(C)[C@H]4CC[C@]23C)c(Cl)c1 [Compound 72, 17β-N-(2-Chloro-4-t-butyl)phenyl-carbamoyl-6-azaandrost-4-en-3-one]	< 10 nM	10 to 100 nM
CCN(CC)C(=O)c1ccc(C(C)(C)C)c(NC(=O)[C@H]2CC[C@H]3[C@@H]4CNC5=CC(=O)CC[C@]5(C)[C@H]4CC[C@]23C)c1 [Compound 105, 17β-N-(2-t-Butyl-5-N,N-diethylcarbamoyl)phenyl-carbamoyl-6-azaandrost-4-en-3-one]	< 10 nM	< 10 nM
C[C@]12CC[C@H]3[C@@H](CNC4=CC(=O)CC[C@@]43C)[C@@H]1CC[C@@H]2C(=O)N(C(=O)NC1CCCCC1)C1CCCCC1 [Compound 96, 17β-(N-cyclohexyl-N-(N-cyclohexylcarbamoyl))-carbamoyl-6-azaandrost-4-en-3-one]	< 10 nM	10 to 100 nM
C[C@]12CC[C@H]3[C@@H](CNC4=CC(=O)CC[C@@]43C)[C@@H]1CC[C@@H]2C(=O)NC1(c2ccc(C(F)(F)F)cc2)CCCC1 [Compound 106, 17β-N-1-(4-Trifluoromethylphenyl)cyclopentyl-carbamoyl-6-azaandrost-4-en-3-one]	< 10 nM	< 10 nM
CCc1cc(C#N)ccc1NC(=O)[C@H]1CC[C@H]2[C@@H]3CNC4=CC(=O)CC[C@]4(C)[C@H]3CC[C@]12C [Compound 84, 17β-N-(2-Ethyl-4-cyano)phenyl-carbamoyl-6-azaandrost-4-en-3-one]	< 10 nM	10 to 100 nM
CCS(=O)(=O)c1ccc(C(F)(F)F)cc1NC(=O)[C@H]1CC[C@H]2[C@@H]3CNC4=CC(=O)CC[C@]4(C)[C@H]3CC[C@]12C [Compound 85, 17β-N-(2-Ethylsulfonyl-5-trifluoromethyl)phenyl-carbamoyl-6-azaandrost-4-en-3-one]	< 10 nM	< 10 nM
CC(C)(C)c1ccc(NC(=O)[C@H]2CC[C@H]3[C@@H]4CNC5=CC(=O)CC[C@]5(C)[C@H]4CC[C@]23C)c([N+](=O)[O-])c1 [Compound 82, 17β-N-(2-Nitro-4-t-butyl)phenyl-carbamoyl-6-azaandrost-4-en-3-one]	< 10 nM	< 10 nM
C[C@]12CC[C@H]3[C@@H](CNC4=CC(=O)CC[C@@]43C)[C@@H]1CC[C@@H]2C(=O)Nc1cc(C(F)(F)F)cc(C(F)(F)F)c1 [Compound 57, 17β-N-(3,5-Ditrifluoromethyl)phenyl-carbamoyl-6-azaandrost-4-en-3-one]	10 to 100 nM	10 to 100 nM
C[C@]12CC[C@H]3[C@@H](CNC4=CC(=O)CC[C@@]43C)[C@@H]1CC[C@@H]2C(=O)c1ccc(F)cc1F [Compound 26, 17β-(1-Oxo-1-(2,4-difluorophenyl)methyl)-6-azaandrost-4-en-3-one]	< 10 nM	10 to 100 nM
CC(C)(C)N(O)C(=O)[C@H]1CC[C@H]2[C@@H]3CNC4=CC(=O)CC[C@]4(C)[C@H]3CC[C@]12C [Compound 41, 17β-N-Hydroxy-N-t-butyl-carbamoyl-6-azaandrost-4-en-3-one]		10 to 100 nM

Continued, values first:

IC50 [1]	IC50 [2]	Compound
< 10 nM	> 100 nM	C[C@]12CC[C@H]3[C@@H](CNC4=CC(=O)CC[C@@]43C)[C@@H]1CC[C@@H]2C(=O)NNc1ccccc1 [Compound 141, 17β-N-(2-Phenyl)-hydrazidyl-carbamoyl-6-azaandrost-4-en-3-one]
< 10 nM	10 to 100 nM	CCC(CC)(NC(=O)[C@H]1CC[C@H]2[C@@H]3CNC4=CC(=O)CC[C@]4(C)[C@H]3CC[C@]12C)c1ccccc1 [Compound 103, 17β-N-(1-Ethyl-1-phenyl)propyl-carbamoyl-6-azaandrost-4-en-3-one]
< 10 nM	< 10 nM	CCC1(CC)CC1(NC(=O)[C@H]1CC[C@H]2[C@@H]3CNC4=CC(=O)CC[C@]4(C)[C@H]3CC[C@]12C)c1ccc(-c2ccccc2)cc1 (stereo partly drawn) [Compound 130, 17β-N-(1-(4-Biphenyl)-2,2-diethyl)cyclopropyl-carbamoyl-6-azaandrost-4-en-3-one]
< 10 nM	< 10 nM	CCC1(CC)CC1(NC(=O)[C@H]1CC[C@H]2[C@@H]3CNC4=CC(=O)CC[C@]4(C)[C@H]3CC[C@]12C)c1ccc(C(F)(F)F)cc1 (stereo partly drawn) [Compound 131, 17β-N-(1-(4-Trifluoromethylphenyl)-2,2-diethyl)cyclopropyl-carbamoyl-6-azaandrost-4-en-3-one]
< 10 nM	< 10 nM	CCc1cc(-c2ccc(Cl)cc2)cc(CC)c1NC(=O)[C@H]1CC[C@H]2[C@@H]3CNC4=CC(=O)CC[C@]4(C)[C@H]3CC[C@]12C [Compound 140, 17β-N-(2,6-Diethyl-4-(4-chlorophenyl))phenyl-carbamoyl-6-azaandrost-4-en-3-one]
< 10 nM	10 to 100 nM	C[C@]12CC[C@H]3[C@@H](CNC4=CC(=O)CC[C@@]43C)[C@@H]1CC[C@@H]2C(=O)Nc1cccc2c1C(=O)c1ccccc1-2 [Compound 138, 17β-N-1-(9-Fluorenonyl)-carbamoyl-6-azaandrost-4-en-3-one]
< 10 nM	> 100 nM	C[C@]12CC[C@H]3[C@@H](CNC4=CC(=O)CC[C@@]43C)[C@@H]1CC[C@@H]2C(=O)Nc1ccccc1S(=O)(=O)c1ccccc1 [Compound 133, 17β-N-(2-Phenylsulfonyl)phenyl-carbamoyl-6-azaandrost-4-en-3-one]
< 10 nM	< 10 nM	CC(C)(C)c1ccc(C2(NC(=O)[C@H]3CC[C@H]4[C@@H]5CNC6=CC(=O)CC[C@]6(C)[C@H]5CC[C@]34C)CCCC2)cc1 [Compound 121, 17β-N-1-(4-t-Butylphenyl)cyclopentyl-carbamoyl-6-azaandrost-4-en-3-one]
< 10 nM	< 10 nM	CC(C)(C)c1ccc(C2(NC(=O)[C@H]3CC[C@H]4[C@@H]5CNC6=CC(=O)CC[C@]6(C)[C@H]5CC[C@]34C)CCOCC2)cc1 [Compound 145, 17β-N-4-(4-t-Butylphenyl)tetrahydropyranyl-carbamoyl-6-azaandrost-4-en-3-one]
< 10 nM	< 10 nM	CC(C)(C)c1ccc(-c2ccc(C(C)(C)C)c(NC(=O)[C@H]3CC[C@H]4[C@@H]5CNC6=CC(=O)CC[C@]6(C)[C@H]5CC[C@]34C)c2)cc1 [Compound 147, 17β-N-(2-t-Butyl-5-(4-t-butyl)phenyl)phenyl-carbamoyl-6-azaandrost-4-en-3-one]
